Values of other authors, collected in US12187744B2, “IRAK4 degraders and synthesis thereof” (Kymera Therapeutics, Inc., priority 2021, dated 2025).

Key:
[1] = per ICH M7(R1) guidance
[2] = in vivo

Row | Compound | ICH M7(R1) Class [1] | results in rodent carcinogenicity assays [2]
1 | CC(C)Cl [Isopropyl chloride] | 2 | –
2 | CI [Methyl iodide] | – | positive
